The source made the active and inactive calls. The calls are words filed in the database; no cut-off is given here.

Data on six compounds can be found in ChEMBL document CHEMBL2010729, “Facile synthesis of triterpenoid saponins bearing β-Glu/Gal-(1→3)-β-GluA methyl ester and their cytotoxic activities” (Bioorg Med Chem Lett, 2012).

The subject of test [1] is MCF7. Put plainly: Cytotoxicity against human MCF7 cells after 48 hrs by MTT assay. The class given is functional, cell-based. Particulars: MCF7, 48 h.
Test [2] relates to HepG2. Put plainly: Cytotoxicity against human HepG2 cells after 48 hrs by MTT assay. The class given is functional, cell-based. Particulars: HepG2, 48 h.
Test [3] deals with K562. Put plainly: Cytotoxicity against human K562 cells after 48 hrs by MTT assay. The class given is functional, cell-based. Particulars: K562, 48 h.
In test [4] the test system is MCF7. Put plainly: Induction of apoptosis in human MCF7 cells assessed as apoptotic cells at 1 uM after 24 hrs using propidium iodide/annexin V staining by flow cytometry (reference value: 3.07 %). Format: functional.
In test [5] the test system is MCF7. Nature of the test: Induction of apoptosis in human MCF7 cells assessed as cell shrinkage at 1 to 3 uM after 24 hrs by DAPI staining based confocal laser scanning microscopy. The class given is functional.
The subject of test [6] is MCF7. Put plainly: Induction of apoptosis in human MCF7 cells assessed as membrane blebbing at 1 to 3 uM after 24 hrs by DAPI staining based confocal laser scanning microscopy. Format: functional, cell-based.
For test [7], the system named is MCF7. Nature of the test: Induction of apoptosis in human MCF7 cells assessed as chromatin condensation at 1 to 3 uM after 24 hrs by DAPI staining based confocal laser scanning microscopy. Format: functional, cell-based.
For test [8], the system named is MCF7. Nature of the test: Induction of apoptosis in human MCF7 cells assessed as apoptotic body formation at 1 to 3 uM after 24 hrs by DAPI staining based confocal laser scanning microscopy. The class given is functional, cell-based.
Test [9] concerns MCF7. Put plainly: Induction of apoptosis in human MCF7 cells assessed as late apoptotic cells at 1 uM after 24 hrs using propidium iodide/annexin V staining by flow cytometry (reference value: 0.11 %). Format: functional.
Test [10] relates to MCF7. Nature of the test: Induction of apoptosis in human MCF7 cells assessed as pre-necrotic cells at 1 uM after 24 hrs using propidium iodide/annexin V staining by flow cytometry (reference value: 0.05 %). Format: functional.
Test [11] concerns MCF7. Nature of the test: Induction of apoptosis in human MCF7 cells assessed as apoptotic cells at 2 uM after 24 hrs using propidium iodide/annexin V staining by flow cytometry (reference value: 3.07 %). The class given is functional.
Test [12] has as its system MCF7. Nature of the test: Induction of apoptosis in human MCF7 cells assessed as late apoptotic cells at 2 uM after 24 hrs using propidium iodide/annexin V staining by flow cytometry (reference value: 0.11 %). Format: functional.
Test [13] concerns MCF7. Put plainly: Induction of apoptosis in human MCF7 cells assessed as pre-necrotic cells at 2 uM after 24 hrs using propidium iodide/annexin V staining by flow cytometry (reference value: 0.05 %). Format: functional.
Test [14] concerns MCF7. Put plainly: Induction of apoptosis in human MCF7 cells assessed as apoptotic cells at 3 uM after 24 hrs using propidium iodide/annexin V staining by flow cytometry (reference value: 3.07 %). The class given is functional.
In test [15] the test system is MCF7. Put plainly: Induction of apoptosis in human MCF7 cells assessed as late apoptotic cells at 3 uM after 24 hrs using propidium iodide/annexin V staining by flow cytometry (reference value: 0.11 %). The class given is functional.
In test [16] the test system is MCF7. Put plainly: Induction of apoptosis in human MCF7 cells assessed as pre-necrotic cells at 3 uM after 24 hrs using propidium iodide/annexin V staining by flow cytometry (reference value: 0.05 %). Format: functional.
Test [17] deals with MCF7. Nature of the test: Induction of apoptosis in human MCF7 cells assessed as increase in ROS production after 24 hrs by fluorescence analysis. Format: functional, cell-based.
Test [18] has as its system MCF7. Put plainly: Induction of apoptosis in human MCF7 cells assessed as loss of mitochondrial membrane potential by JC-1 staining based flow cytometry. Format: functional, cell-based.

Turning to `COC(=O)[C@H]1O[C@@H](O[C@H]2CC[C@]3(C)[C@H]4C(=O)C=C5[C@@H]6C[C@@](C)(C(=O)O)CC[C@]6(C)CC[C@@]5(C)[C@]4(C)CC[C@H]3C2(C)C)[C@H](O)[C@@H](O[C@@H]2O[C@H](CO)[C@H](O)[C@H](O)[C@H]2O)[C@@H]1O`, the IC50 in [1], in [2] and in test [3] was over 60 µM in each case.
In the case of `COC(=O)[C@H]1O[C@@H](O[C@H]2CC[C@]3(C)[C@H]4CC=C5[C@@H]6CC(C)(C)CC[C@]6(C(=O)O)CC[C@@]5(C)[C@]4(C)CC[C@H]3C2(C)C)[C@H](O)[C@@H](O[C@@H]2O[C@H](CO)[C@@H](O)[C@H](O)[C@H]2O)[C@@H]1O` [SPINASAPONIN A METHYL ESTER], the IC50 turned out to be 4.52 µM in [1], 8.36 µM in [2] and 15.7 µM in test [3].
Consider `COC(=O)[C@H]1O[C@@H](O[C@H]2CC[C@]3(C)[C@H]4C(=O)C=C5[C@@H]6C[C@@](C)(C(=O)O)CC[C@]6(C)CC[C@@]5(C)[C@]4(C)CC[C@H]3C2(C)C)[C@H](O)[C@@H](O[C@@H]2O[C@H](CO)[C@@H](O)[C@H](O)[C@H]2O)[C@@H]1O`, for which the IC50 in test [1], in [2] and in [3] was over 60 µM throughout.
In the case of `COC(=O)[C@H]1O[C@@H](O[C@H]2CC[C@]3(C)[C@H]4CC=C5[C@@H]6[C@@H](C)[C@H](C)CC[C@]6(C(=O)O)CC[C@@]5(C)[C@]4(C)CC[C@H]3C2(C)C)[C@H](O)[C@@H](O[C@@H]2O[C@H](CO)[C@@H](O)[C@H](O)[C@H]2O)[C@@H]1O`, the IC50 in [1] is 23.3 µM; in [2], 44.7 µM; in test [3] it was over 60 µM.
With `COC(=O)[C@H]1O[C@@H](O[C@H]2CC[C@]3(C)[C@H]4CC=C5[C@@H]6[C@@H](C)[C@H](C)CC[C@]6(C(=O)O)CC[C@@]5(C)[C@]4(C)CC[C@H]3C2(C)C)[C@H](O)[C@@H](O[C@@H]2O[C@H](CO)[C@H](O)[C@H](O)[C@H]2O)[C@@H]1O`, the half-maximal inhibitory concentration (IC50) in test [1] is 22.1 µM; in test [2] it was 47.1 µM; in test [3] it was over 60 µM.
Regarding `COC(=O)[C@H]1O[C@@H](O[C@H]2CC[C@]3(C)[C@H]4CC=C5[C@@H]6CC(C)(C)CC[C@]6(C(=O)O)CC[C@@]5(C)[C@]4(C)CC[C@H]3C2(C)C)[C@H](O)[C@@H](O[C@@H]2O[C@H](CO)[C@H](O)[C@H](O)[C@H]2O)[C@@H]1O`, the Activity was determined as 4.33% in test [4]; 8.43% in [9]; 2.2% in test [10]; 2.42% in test [11]; 18.44% in test [12]; 2.84% in [13]. Further, the Activity was 3.26% in test [14]; 29.61% in test [15]; 18.81% in test [16]; “Dose-dependent effect” in test [17]; “Dose-dependent effect” in test [18]. The half-maximal inhibitory concentration (IC50) is 1.87 µM in test [1], 2.24 µM in [2] and 2.36 µM in [3]. For the same compound, the result in test [5], in [6], in test [7] and in test [8] was Active.
